Measurements reported in PubChem BioAssay AID179 (DTP/NCI, 2004).
Values joined by “and” are separate entries in the source; they are usually repeats but may differ in a detail not shown here. Identical values can stand only once. Active and inactive are the calls of the source.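 Rule for the calls: active = compounds giving half or more protection of infected cells from virus-caused growth loss, again on retest; inactive = the rest.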 Where a SMILES comes first, the peptide text is derived from it. [ ]: non-standard residue; d: D form. The star is where a group is joined. ξ: configuration not given here. Bz = O=C(c1ccccc1)*; ξC = NC(CS)C(=O)O

Test system: CEM cells HIV-1 protection, formazan growth assay
Assay: NCI AIDS Antiviral Assay
Settings: for IC50: measured here: growth of uninfected CEM cells
Summary of the method: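 Human CEM cells, uninfected and HIV-1-infected, received five drug concentrations, and growth was read by soluble formazan assay. Compounds giving at least 50% protection were retested; reproducible 100% protection defined confirmed active.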

Row | Structure (SMILES) | EC50 | IC50 | outcome
1 | CCCCCCCCCCCCCCCC=C(c1cc(Cl)c(OC)c(C(=O)O)c1)c1cc(Cl)c(OC)c(C(=O)O)c1 | > 1200 µM | 26.3 µM and 52.5 µM | 
2 | C1CN(CCSSCCN2CCOCC2)CCO1 | > 200 µM | 166 µM | 
3 | COc1c(C(=O)/C(=N/Nc2cccc(Cl)c2)C(C)=O)c(O)c(OC)c2occc12 | > 200 µM | 85.1 µM | 
4 | C=CC(OCC)(OCC)OCC | > 1450 µM | > 1450 µM | 
5 | CC(NC(=O)CNC(=O)C(N)CO)C(=O)NC(CCC(=O)O)C(=O)NC(CCCCN)C(=O)NC(CO)C(=O)NC(CCCCN)C(=O)NC(CCCCN)C(=O)NC(CCCCN)C(=O)NCC(=O)NC(CO)C(=O)NC(CC(N)=O)C(=O)NC(C)C(=O)NC(Cc1cnc[nH]1)C(=O)NC(CO)C(=O)O (stereo unspecified) (H-SGAEKSKKKGSNAHS-OH; configuration not given here) |  |  | inactive
6 | O=C1Cc2ccccc2CCc2ccsc21 | 64.6 µM | 83.2 µM | 
7 | O=C1CCCc2ccc3c(c21)CC1(Cc2ccccc2C1)C3 | > 200 µM | 25.1 µM | 
8 | O=Cc1cc2sc(C=O)cc2s1 |  |  | inactive
9 | NC(CCP(=O)(O)CCC1C=CC=CC1)C(=O)O (stereo unspecified) | > 200 µM | > 200 µM | 
10 | O=S(=O)(NC(c1ccccc1)(c1cc2ccccc2[nH]1)c1cc2ccccc2n1S(=O)(=O)c1ccccc1)c1ccccc1 (stereo unspecified) | > 200 µM | > 200 µM | 
11 | CC1=CC[C@H](C[C@H](C#CCCCC2OCCO2)O[Si](C(C)C)(C(C)C)C(C)C)C(=O)CC1 | > 200 µM | 9.77 µM | 
12 | O=C(O)C12C3CCC(C3)C1(C(=O)O)C1CCC2C1 (stereo unspecified) | > 1000 µM | > 1000 µM | 
13 | O=C1OC(c2cccc3c(F)cccc23)c2ccccc21 (stereo unspecified) |  |  | inactive
14 | Cc1cc2c(cc1C)[n+](=O)c(C(=O)CC(=O)C(=O)Nc1ccccc1C)c(C)n2[O-] | > 9.33 µM | > 9.33 µM | 
15 | O=S1(=O)C2CCCC1C(Cl)CC2 (stereo unspecified) | > 47.9 µM | > 47.9 µM | 
16 | C=C(CC1CCCS(=O)(=O)C1)S(=O)(=O)c1ccc(C)cc1 (stereo unspecified) | > 200 µM | > 200 µM | 
17 | OC12CC/C(=N/OCc3ccccc3)CC1c1ccccc12 (stereo unspecified) | > 162 µM | 148 µM | 
18 | O=c1ccc(-c2ccc(-n3ccnc3)cc2)nn1CCO | > 200 µM | > 200 µM | 
19 | O=C(NCC(C(=O)OCc1ccccc1)C(=O)OCc1ccccc1)OCc1ccccc1 | > 200 µM | 63.1 µM | 
20 | N#Cc1c2nc3ccccc3nc2n2ccc3ccccc3c12 | > 200 µM | > 200 µM | 
21 | OC1CSc2ccccc2-n2cccc21 (stereo unspecified) | > 138 µM | 110 µM | 
22 | O=C1CCCCC(=O)OC2(CCCCC2=O)CC1 (stereo unspecified) | > 200 µM | > 200 µM | 

Row | Structure (SMILES) | EC50 | IC50 | outcome
23 | COC1OC(Cn2cc([N+](=O)[O-])nc2C)C(O)C(O)C1O (stereo unspecified) | > 200 µM | > 200 µM | 
24 | CC(=O)/C=C/CCC1CCC(=O)C1(C)C(=O)OC(C)(C)C (stereo unspecified) | > 115 µM | 39.8 µM | 
25 | COc1ccc2c(c1)CCC1C(=O)NN=C21 (stereo unspecified) | > 776 µM | > 776 µM | 
26 | CCCCCCC[CH2][Sn]1([CH2]CCCCCCC)[O]C(=O)c2cccnc2[S]1 | 0.794 µM | 91.2 µM | 
27 | O=C(O)CC/C(=N\Nc1nsc2ccccc12)c1ccc(Cl)cc1 | > 10.5 µM | 6.76 µM | 
28 | CN(C)c1ccc(/C=C/C(=O)c2ccc(O)cc2)cc1 | > 200 µM | 3.31 µM | 
29 | CC(=O)C(CN(C(C)C)C(C)C)C(c1ccccc1)c1c(O)c2ccccc2oc1=O (stereo unspecified) | > 85.1 µM | 75.9 µM | 
30 | COc1cc(/C=C2/C(=O)N(C(=O)c3ccc(Cl)cc3)N=C2C)cc(OC)c1OC | > 17.4 µM | > 17.4 µM | 
31 | NC(CSC[C@H](N)C(=O)O)C(=O)O (stereo partly specified) |  |  | inactive
32 | O=C1c2cc3c(cc2CC12Cc1ccc4c(c1C2=O)CCC4)CCCC3 (stereo unspecified) | > 200 µM | > 200 µM | 
33 | COc1cc(O)c2c(=O)c3ccccc3n(C)c2c1 | > 200 µM | 11.2 µM | 
34 | CN(C)CCNC(=O)c1cccc2c(Nc3ccc(S(=O)(=O)N=C(N)N)cc3)c3ccccc3nc12 |  |  | inactive
35 | CC1(C)CC(=O)C2=C(C1)OC1=C(CC(C)(C)CC1=O)C2c1ccccc1[N+](=O)[O-] (stereo unspecified) | > 200 µM | > 200 µM | 
36 | CCSc1nc2sc(C)c(C)c2c(=O)n1-c1ccc(C(=O)O)cc1 | > 200 µM | > 200 µM | 
37 | O=C(O)[C@@H](NS(=O)(=O)c1ccc([N+](=O)[O-])cc1)c1ccccc1 |  |  | inactive
38 | O=C1N=NC(=O)N1c1ccccc1 | > 200 µM | > 200 µM | 
39 | O=C1C[C@H](c2ccccc2)O[C@@H](c2ccccc2)C1 | > 200 µM | > 200 µM | 
40 | CC(=O)NC(CCCCNC(=O)N(CCCl)N=O)C(=O)NCc1ccccc1 (stereo unspecified) | > 603 µM | 132 µM | 
41 | CC(=O)N(C(=O)CC(=O)NN)c1ccc(Cl)cc1 |  |  | inactive
42 | CN(C)CCN1C(=O)N(CCN(C)C)c2c3cc(O)ccc3nc3c([N+](=O)[O-])ccc1c23 | > 200 µM | 2.34 µM | 
43 | COc1ccc(NC(=O)CC2SC(=Nc3ccccc3C)NC2=O)c([N+](=O)[O-])c1 (stereo unspecified) |  |  | inactive
44 | CC1=CC(C)C(=O)N(CCN2CCOCC2)C(C)=C1 (stereo unspecified) | > 955 µM | > 955 µM | 

Row | Structure (SMILES) | EC50 | IC50 | outcome
45 | COC(=O)C(Cc1ccccc1I)C1=CCC2(CC1)OCCO2 (stereo unspecified) | > 200 µM | 49 µM | 
46 | O/N=C(\c1ccccc1)N1CCCCC1 |  |  | inactive
47 | Cn1c2ccccc2c2c(-c3ccccc3)cc3c(c21)C(=O)C=CC3=O | > 100 µM | 5.5 µM | 
48 | CN1CCN(C)C(=O)CSSCC1=O | > 151 µM | > 151 µM | 
49 | COc1cc(Nc2cnc3cc(C(F)(F)F)ccc3n2)cc(OC)c1OC | > 50.1 µM | > 50.1 µM | 
50 | c1ccc(Nc2nnc(CCCCCCCCc3nnc(Nc4ccccc4)o3)o2)cc1 | > 200 µM | 107 µM | 
51 | Cc1cc(Cl)ccc1Nc1nc2c(s1)C(=O)c1ccccc1C2=O |  |  | inactive
52 | COc1cc2oc(=O)cc(C)c2c(OC)c1O |  |  | inactive
53 | CCOC(=O)/C(=C/c1ccc(C)cc1)P(=O)(OCC)OCC | 562 µM | 631 µM | 
54 | CCC(c1ccccc1)C1NC(=S)NC1=O (stereo unspecified) | > 200 µM | 138 µM | 
55 | OCCSCCCSCCO | > 95.5 µM | 72.4 µM | 
56 | O=C(O)c1[nH][nH]c(=O)c1N=Nc1ccc(/C=C/c2ccc(N=Nc3c(C(=O)O)[nH][nH]c3=O)cc2S(=O)(=O)O)c(S(=O)(=O)O)c1 | > 200 µM | > 200 µM | 
57 | CCCCCCO/N=C\c1c2c(O)c3c(O)c(C)c4c(c3c1O)C(=O)C(C)(O/C=C\C(OC)C(C)C(OC(C)=O)C(C)C(O)C(C)C(O)C(C)/C=C\C=C(\C)C(=O)N2)O4 (stereo unspecified) | > 200 µM | 5.37 µM | 
58 | COc1ccc2c(c1)nc1n2C(c2c(F)cccc2Cl)SC1 (stereo unspecified) | > 200 µM | 4.17 µM | 
59 | CC[C@H]1CN2CCc3cc(OC)c(OC)cc3[C@@H]2C[C@@H]1C[C@@H]1c2cc(OC)c(OC)cc2CCN1N=O |  |  | inactive
60 | Cc1occc1C(=S)Nc1ccc(Cl)c(C(=O)OC(C)C2CC2)c1 (stereo unspecified) | 0.0234 µM | 47.9 µM | 
61 | COC1=CC(=O)O/C1=C(\OC)C1OC1c1ccccc1 (stereo unspecified) | 5.37 µM | 97.7 µM | 
62 | CCOC(=O)C(C)(C)C(OP(OCC)OCC)=C(C)C | > 589 µM | > 589 µM | 
63 | Nc1nc(Cl)cc(OCC2(CO)CCC2)n1 | > 200 µM | 135 µM | 
64 | COC(=O)C(CS)NC(=O)CNC(=O)c1ccccc1 (stereo unspecified) (Bz-Gly-[ξC]-OMe) | > 851 µM | 46.8 µM | 
